According to patent US7022711B2, “2-(4-Pyridyl)amino-6-dialkoxyphenyl-pyrido[2,3-d]pyrimidin-7-ones” (Warner-Lambert Company, priority 2000, dated 2006):

Columns and labels:
[1] = Metabolic stability, human liver S9 fraction; assay type: in vitro ADME; conditions: human liver S9, 5 μM, 37° C., 1.0 mM NADPH
Protocol: Compounds were individually incubated (5 μM in DMSO) with human and mice liver S9 fractions in 50 mM KHPO4 buffer at 37° C. in the presence of 1.0 mM NADPH and additional cofactors. At 0, 10, 20, and 40 minutes, 100 μL aliquots were removed and added to 300 μL of acetonitrile. Standard curves were prepared in a similar manner with each compound. Samples were analyzed for parent concentration by LC-MS/MS. The in vitro metabolic half-life was determined from the concentration-time plots using WinNonlin. These in vitro data represent the rate of oxidative, hydrolytic, and conjugative metabolism.

C6 rat glioma cells = assay: C6 tumor cell proliferation (Sulphorhodamine B); assay type: cell-based; conditions: 4 days with compound
Protocol: (§1) Human umbilical vein endothelial cells (HUVECs) (Clonetics, Palo Alto, Calif.) were seeded at 2000 cells per well in growth medium containing 2% serum (EGM, Clonetics) and allowed to attach overnight (37° C., 5% CO2, 100% humidity). C6 rat glioma cells (ATCC) were seeded at 600 cells per well and incubated in F10 medium (GIBCO, Gaithersburg, Md.) supplemented with 15% horse serum, 2.5% fetal bovine serum, and 1 mM glutamine. A90 human ovarian cells (Dr. Kent Crickard, SUNY/AB Medical School) were seeded at 600 cells per well in RPMI1640 (GIBCO) plus 10% fetal bovine serum. Plates were incubated overnight (37° C., 5% CO2, 100% humidity) to allow the cells to attach. Test compound dilutions were added to the appropriate wells, and the incubation was continued for 4 additional days. Monolayers were fixed in 10% trichloroacetic acid (30 minutes at 4° C.), washed with distilled water, and stained with Sulphorhodamine B (0.075% in 1% acetic acid) (Sigma). Plates were washed in 1% acetic acid, and the bound dye was solubilized in 100 μL unbuffered Tris base. Absorbance was measured at 540 nm using a reference filter wavelength of 630 nm. Inhibitor potency (IC50) versus cellular proliferation was determined, and endothelial cell selectivity was assessed by comparing the inhibition of HUVEC proliferation to A90 and C6 tumor cell proliferation (Table 3).

[2] = system: Mammary Adenocarcinoma M16/C; assay: Antitumor activity in vivo, M16/C mammary tumor model; conditions: for CRs, complete regression / T-C (Days), tumor growth delay to 750 mg / T/C (%), median treated tumor mass/median control tumor mass / NSD, nonspecific deaths/total in treatment group: D7-15; for T/C (%), median treated tumor mass/median control tumor mass: 3 days after the end of therapy
Protocol: The anticancer efficacy of the compound of Example 8 was evaluated using a murine mammary […] tumor model, M16/C. This highly vascularized tumor is very aggressive with a doubling time of 1.5 days. Tumor fragments were implanted by trocar fragment in the right axilla of C3H mice on Day 0. The efficacy of treatment was assessed both in an advanced stage model (test compound treatment for nine consecutive days after tumors had reached 100 mg). The compound in Example 8 was dosed once a day over the treatment period by oral gavage in 0.05 M sodium lactate buffer, pH 4. Animals were allowed to continue off therapy until the tumors reached the evaluable size (750 mg). Animal weights were determined throughout the study to provide an estimate of test compound toxicity. A mean weight loss >10% (3–4 g) for any treatment group is an indication of host toxicity. Anticancer activity was evaluated using two methods. The first is %T/C where T=median mass of treated tumors 3 days after the end of therapy, and C=median mass of the control group at that same time point. The highest degree of antitumor activity using this assessment occurs when T=0, and %T/C=0%. […] The second method uses tumor growth delay (T−C), where T=the days for the median treated tumor to reach an evaluable size (750 mg), and C=days for control tumors to reach that same size.

VEGFR-2 = molecular target: T1, VEGFR-2 (Homo sapiens, UniProt P35968); assay: Kinase inhibition assay (DELFIA), VEGF-2; assay type: biochemical; conditions: 40 μM ATP, kinase domain 20 nM
T1 construct: The kinase domains from FGFR-1, VEGFR-2, Lck, and PDGF were purified from baculoviral vectors expression systems; made in house
Protocol: DELFIA plates (EG&G Wallac, Gaithersburg, Md.) were coated overnight with Poly Glu Tyr (4:1) (Sigma, St. Louis, Mo.) at room temperature, washed (DELFIA wash reagent, EG&G Wallac), and spotted with 1 μL inhibitor dilution or DMSO carrier control per well. In some cases, kinase was autophosphorylated prior to analysis by incubating 45 minutes at 4° C. in the presence of 4 mM ATP and 25 mM MgCl2. A typical 100 μL kinase assay reaction contained 20 mM Tris (pH 7.5), 20 mM MgCl2, 50 mM NaCl, 5 mM DTT, and protease inhibitors (Mini EDTA-free protease inhibitor cocktail tablets, Boehringer Mannheim, Indianapolis, Ind.), 40 μM ATP, and an appropriate concentration of inhibitor. The reaction was allowed to continue for 30 minutes at room temperature. Plates were washed, blocked 30 minutes at room temperature (0.5% bovine serum albumin in DELFIA Assay Buffer, EG&G Wallac), and washed. One hundred microliter europium-conjugated antiphosphotyrosine antibody in DELFIA assay buffer was added to each well. Plates were incubated for 1 hour and decanted. […] Compounds were tested from 10 through 0.0001 μM. c-Src was (Upstate Biotechnology, Lake Placid, N.Y.) was used at 3 units per reaction. The kinase domains from FGFR-1, VEGFR-2, Lck, and PDGF were purified from baculoviral vectors expression systems and were used in the assays at 20 nM.

[3] = system: Human umbilical vein endothelial cells (HUVECs); assay: Serum stimulated HUVEC cell proliferation (Sulphorhodamine B); assay type: cell-based
Protocol: as §1

T1 sequence (P35968 834-1162 limits assumed, species assumed): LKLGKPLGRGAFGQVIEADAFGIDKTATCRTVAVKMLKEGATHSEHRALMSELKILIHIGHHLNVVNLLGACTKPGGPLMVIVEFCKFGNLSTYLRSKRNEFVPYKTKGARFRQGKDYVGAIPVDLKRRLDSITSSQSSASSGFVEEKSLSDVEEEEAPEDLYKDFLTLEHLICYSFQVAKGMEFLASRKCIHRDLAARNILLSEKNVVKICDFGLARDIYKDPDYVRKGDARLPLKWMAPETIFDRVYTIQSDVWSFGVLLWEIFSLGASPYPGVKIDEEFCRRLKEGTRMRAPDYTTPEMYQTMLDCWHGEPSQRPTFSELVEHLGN

Substance: 6-(3,5-Dimethoxy-phenyl)-8-ethyl-2-(pyridin-4-ylamino)-8H-pyrido[2,3-d]pyrimidin-7-one [Example 8]
- HS9 in vitro metabolic half-life [1]: >3.33 h
- IC50 (C6 rat glioma cells): > 25 µM
- CRs, complete regression ([2]; 5 mg/kg, oral): 0/6
- T-C (Days), tumor growth delay to 750 mg ([2]; 5 mg/kg, oral): 4.3 days
- T/C (%), median treated tumor mass/median control tumor mass ([2]; 5 mg/kg, oral): 39%
- NSD, nonspecific deaths/total in treatment group ([2]; 10 mg/kg, oral): 0/6
- T-C (Days), tumor growth delay to 750 mg ([2]; 10 mg/kg, oral): 7.9 days
- T/C (%), median treated tumor mass/median control tumor mass ([2]; 10 mg/kg, oral): 15%
- CRs, complete regression ([2]; 20 mg/kg, oral): 4/6
- NSD, nonspecific deaths/total in treatment group ([2]; 20 mg/kg, oral): 0/6
- T-C (Days), tumor growth delay to 750 mg ([2]; 20 mg/kg, oral): 10.7 days
- T/C (%), median treated tumor mass/median control tumor mass ([2]; 20 mg/kg, oral): 0%
- CRs, complete regression ([2]; 40 mg/kg, oral): 6/6
- NSD, nonspecific deaths/total in treatment group ([2]; 40 mg/kg, oral): 0/6
- T-C (Days), tumor growth delay to 750 mg ([2]; 40 mg/kg, oral): 12.4 days
- T/C (%), median treated tumor mass/median control tumor mass ([2]; 40 mg/kg, oral): 0%
- regression of tumors below the level of palpation ([2]; 40 and 20 mg/kg dose levels): complete regressions
- tumor growth delay (T−C) relative to duration of therapy ([2]; 40 and 20 mg/kg dose levels): greater than the duration of therapy
- anticancer activity (%T/C) ([2]; all four doses tested): meaningful anticancer activity
- tolerability ([2]; all four doses tested, oral, nine consecutive days): well-tolerated
- IC50 (VEGFR-2): 0.02 µM
- IC50 ([3]; 2% serum growth medium, 4 days with compound): 0.009 µM
- selectivity for serum-stimulated endothelial cell proliferation ([3]; HUVEC compared to A90 and C6 tumor cell proliferation): selective inhibitors
